Reference: patent US20250171437A1 (Agios Pharmaceuticals,Inc., priority 2022, published 2025)

Target: T1, human PAH with the R408W mutation (A375 R408W cells) (Homo sapiens, UniProt P00439, R408W)
T1 construct: expressed in transfected cells
T1 sequence (P00439 1-452 R408W): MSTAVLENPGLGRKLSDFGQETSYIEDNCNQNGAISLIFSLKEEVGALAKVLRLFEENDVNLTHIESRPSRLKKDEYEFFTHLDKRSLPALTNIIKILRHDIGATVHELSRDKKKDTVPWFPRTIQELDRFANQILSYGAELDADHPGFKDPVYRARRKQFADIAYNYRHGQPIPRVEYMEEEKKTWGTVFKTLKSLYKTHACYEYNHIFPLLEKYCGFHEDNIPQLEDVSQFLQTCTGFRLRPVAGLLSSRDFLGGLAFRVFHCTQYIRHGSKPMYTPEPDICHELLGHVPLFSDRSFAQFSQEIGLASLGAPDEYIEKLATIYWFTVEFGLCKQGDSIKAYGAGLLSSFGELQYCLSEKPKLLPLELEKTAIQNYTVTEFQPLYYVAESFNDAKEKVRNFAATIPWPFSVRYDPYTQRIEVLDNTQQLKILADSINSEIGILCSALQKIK
Experiment: Cell Based Phenylalanine Flux Assay
Conditions: A375 R408W cells; 24 hrs with compound, then 20 μM sepiapterin and 800 μM 13C9,15N-Phenylalanine for 4 hours; 13C-Tyrosine by LC-MS; average where tested multiple times
Procedure, shortened: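 Phenylalanine-to-tyrosine flux is measured in A375 cells carrying stable human R408W PAH. After 24 h compound exposure, 13C9,15N-Phe (800 μM) with sepiapterin (20 μM) is supplied for 4 h and media 13C-Tyr is read by LC-MS; AC50s are binned.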

| AC50 | Compound |
| --- | --- |
| 1000 to 5000 nM | Cc1nc(C(=O)N2CCc3[nH]cnc3[C@H]2c2nc3cccc(F)c3o2)n(C)n1 [Example 495, (S)-(1,3-dimethyl-1H-1,2,4-triazol-5-yl)(4-(7-fluorobenzo[d]oxazol-2-yl)-6,7-dihydro-1H-imidazo[4,5-c]pyridin-5(4H)-yl)methanone] |
| 1000 to 5000 nM | CC(F)(F)c1ncoc1C(=O)N1CCc2[nH]cnc2[C@@H]1c1nc2cccc(F)c2o1 [Example 619, (R)-(4-(1,1-difluoroethyl)oxazol-5-yl)(4-(7-fluorobenzo[d]oxazol-2-yl)-6,7-dihydro-1H-imidazo[4,5-c]pyridin-5(4H)-yl)methanone] |
| 1000 to 5000 nM | Cc1ncoc1C(=O)N1Cc2[nH]cnc2[C@H]1c1nc2ccccc2o1 [Example 941, (S)-(4-(benzo[d]oxazol-2-yl)-4,6-dihydropyrrolo[3,4-d]imidazol-5(1H)-yl)(4-methyloxazol-5-yl)methanone] |
| 500 to 1000 nM | Cn1cc(-c2ccc3c(C(=O)N4CCc5[nH]cnc5[C@H]4c4nc5cc(F)ccc5o4)cnn3c2)cn1 [Example 71, (S)-(4-(5-fluorobenzo[d]oxazol-2-yl)-6,7-dihydro-1H-imidazo[4,5-c]pyridin-5(4H)-yl)(6-(1-methyl-1H-pyrazol-4-yl)pyrazolo[1,5-a]pyridin-3-yl)methanone] |
| ≥ 5000 nM | Cc1ccc2oc([C@H]3c4nc[nH]c4CCN3C(=O)c3ncc(Cl)s3)nc2c1 [Example 2, (R)-(5-chlorothiazol-2-yl)(4-(5-methylbenzo[d]oxazol-2-yl)-6,7-dihydro-1H-imidazo[4,5-c]pyridin-5(4H)-yl)methanone] |
| 500 to 1000 nM | Cc1ccc2nc([C@@H]3c4nc[nH]c4CCN3C(=O)c3nnc(-c4ccn(C)n4)o3)oc2c1 [Example 357, (S)-(5-(1-methyl-1H-pyrazol-3-yl)-1,3,4-oxadiazol-2-yl)(4-(6-methylbenzo[d]oxazol-2-yl)-6,7-dihydro-1H-imidazo[4,5-c]pyridin-5(4H)-yl)methanone] |
| 1000 to 5000 nM | O=C(c1oc(-c2ncccn2)nc1C(F)F)N1CCc2[nH]cnc2[C@@H]1c1nc2cc(F)ccc2o1 [Example 662, (R)-(4-(difluoromethyl)-2-(pyrimidin-2-yl)oxazol-5-yl)(4-(5-fluorobenzo[d]oxazol-2-yl)-6,7-dihydro-1H-imidazo[4,5-c]pyridin-5(4H)-yl)methanone] |
| ≤ 500 nM | Cc1ccc2oc([C@@H]3c4nc[nH]c4CCN3C(=O)c3oc(-c4ccn(C)n4)nc3C(F)F)nc2c1 [Example 755, (S)-(4-(difluoromethyl)-2-(1-methyl-1H-pyrazol-3-yl)oxazol-5-yl)(4-(5-methylbenzo[d]oxazol-2-yl)-6,7-dihydro-1H-imidazo[4,5-c]pyridin-5(4H)-yl)methanone] |
| 1000 to 5000 nM | Cc1nc(-c2ccccn2)oc1C(=O)N1CCc2[nH]cnc2[C@@H]1c1nc2cccc(F)c2o1 [Example 593, (R)-(4-(7-fluorobenzo[d]oxazol-2-yl)-6,7-dihydro-1H-imidazo[4,5-c]pyridin-5(4H)-yl)(4-methyl-2-(pyridin-2-yl)oxazol-5-yl)methanone] |
| 1000 to 5000 nM | Cc1cc(C(=O)N2CCc3[nH]cnc3[C@H]2c2nc3ccccc3o2)n(C)n1 [Example 779, (S)-(4-(benzo[d]oxazol-2-yl)-6,7-dihydro-1H-imidazo[4,5-c]pyridin-5(4H)-yl)(1,3-dimethyl-1H-pyrazol-5-yl)methanone] |
| ≤ 500 nM | O=C(c1ocnc1C(F)F)N1CCc2[nH]cnc2[C@H]1c1nc2cc(Cl)ccc2o1 [Example 378, (S)-(4-(5-chlorobenzo[d]oxazol-2-yl)-6,7-dihydro-1H-imidazo[4,5-c]pyridin-5(4H)-yl)(4-(difluoromethyl)oxazol-5-yl)methanone] |

Same assay, conditions: A375 cells expressing R408W PAH; 24 hrs with compound, then 20 μM sepiapterin and 800 μM 13C9,15N-Phenylalanine for 4 hours; 13C-Tyrosine by LC-MS; average where tested multiple times

| AC50 | Compound |
| --- | --- |
| ≥ 5000 nM | Cc1nc(C(C)(C)N(C)C)oc1C(=O)N1CCc2[nH]cnc2C1c1nc2cc(F)ccc2o1 (centres unmarked) |
| 1000 to 5000 nM | O=C1CN(CCc2ccc3c(C(=O)N4CCc5[nH]cnc5C4c4nc5cc(F)ccc5o4)cnn3c2)CCN1 (centres unmarked) |
| 1000 to 5000 nM | CC1CN(C(=O)c2oc(C(C)(C)O)nc2C(F)F)C(c2nc3cc(F)ccc3o2)c2nc[nH]c21 (centres unmarked) |
